The record followed here is US20250388543A1, “HETEROARYL COMPOUNDS FOR THE TREATMENT OF PAIN” (VERTEX PHARMACEUTICALS INCORPORATED, priority 2022, published 2025).

human NaV 1.8, sequence (Q9Y5Y9 126-1722 limits assumed): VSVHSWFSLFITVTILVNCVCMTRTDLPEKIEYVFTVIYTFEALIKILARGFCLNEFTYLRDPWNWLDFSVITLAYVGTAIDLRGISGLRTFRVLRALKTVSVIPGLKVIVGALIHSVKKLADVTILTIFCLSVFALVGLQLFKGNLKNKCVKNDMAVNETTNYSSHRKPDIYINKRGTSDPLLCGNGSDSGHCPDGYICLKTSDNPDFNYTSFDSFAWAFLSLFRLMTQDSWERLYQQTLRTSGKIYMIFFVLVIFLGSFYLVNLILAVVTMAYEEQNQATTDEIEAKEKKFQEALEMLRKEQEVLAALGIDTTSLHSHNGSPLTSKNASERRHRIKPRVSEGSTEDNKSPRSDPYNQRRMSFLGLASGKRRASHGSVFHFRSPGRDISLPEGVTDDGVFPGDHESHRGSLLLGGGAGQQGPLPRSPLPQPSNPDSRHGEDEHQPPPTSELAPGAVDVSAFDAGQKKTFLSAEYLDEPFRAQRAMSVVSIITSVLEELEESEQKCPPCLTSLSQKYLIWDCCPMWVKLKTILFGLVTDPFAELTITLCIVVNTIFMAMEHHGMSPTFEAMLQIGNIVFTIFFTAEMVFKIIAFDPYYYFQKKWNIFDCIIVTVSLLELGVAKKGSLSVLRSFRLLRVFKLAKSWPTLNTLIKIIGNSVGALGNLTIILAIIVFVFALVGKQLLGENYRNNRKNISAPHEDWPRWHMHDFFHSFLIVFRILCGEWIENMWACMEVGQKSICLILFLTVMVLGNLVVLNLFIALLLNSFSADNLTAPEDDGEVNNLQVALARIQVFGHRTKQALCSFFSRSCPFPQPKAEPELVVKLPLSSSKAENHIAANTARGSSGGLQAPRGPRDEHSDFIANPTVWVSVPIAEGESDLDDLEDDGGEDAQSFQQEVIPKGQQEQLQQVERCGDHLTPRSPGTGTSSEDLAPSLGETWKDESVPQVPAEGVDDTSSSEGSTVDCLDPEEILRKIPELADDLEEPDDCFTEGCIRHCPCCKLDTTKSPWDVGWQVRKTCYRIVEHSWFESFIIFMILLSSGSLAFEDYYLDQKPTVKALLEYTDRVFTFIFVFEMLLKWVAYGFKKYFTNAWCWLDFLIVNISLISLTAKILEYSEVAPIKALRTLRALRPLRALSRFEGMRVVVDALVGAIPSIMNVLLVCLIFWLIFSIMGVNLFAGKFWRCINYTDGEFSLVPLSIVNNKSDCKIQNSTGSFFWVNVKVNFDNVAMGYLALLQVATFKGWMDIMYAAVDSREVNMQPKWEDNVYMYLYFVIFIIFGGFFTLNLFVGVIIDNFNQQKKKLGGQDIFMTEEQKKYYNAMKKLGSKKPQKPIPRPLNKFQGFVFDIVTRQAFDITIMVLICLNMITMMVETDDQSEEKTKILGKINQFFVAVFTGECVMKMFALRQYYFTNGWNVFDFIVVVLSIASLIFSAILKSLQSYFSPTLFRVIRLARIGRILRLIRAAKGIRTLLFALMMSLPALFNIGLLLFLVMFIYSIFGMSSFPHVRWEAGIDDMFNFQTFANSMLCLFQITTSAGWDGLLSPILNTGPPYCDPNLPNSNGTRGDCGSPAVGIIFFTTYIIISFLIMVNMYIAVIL

In the test the target is human NaV 1.8 (Homo sapiens, UniProt Q9Y5Y9). Put plainly: E-VIPR Assay Detecting and Measuring NaV Inhibition Properties. It counts as cell-based. Particulars: HEK cells expressing a truncated form of human NaV 1.8 with full channel activity; electrical stimulation, membrane-potential FRET dyes; 30 minutes compound incubation; read-out: measured IC50 value in the E-VIPR Assay. The source says:
E-VIPR Assay Detecting and Measuring NaV Inhibition Properties
Sodium ion channels are voltage-dependent proteins that can be activated by inducing membrane voltage changes by applying electric fields. The electrical stimulation instrument and methods of use, referred to as E-VIPR, are described in International Publication No. WO 2002/008748 A3 and C.-J. Huang et al. Characterization of voltage-gated sodium channel blockers by electrical stimulation and fluorescence detection of membrane potential, 24 Nature Biotech. 439-46 (2006), both of which are incorporated by reference in their entirety. The instrument comprises a microtiter plate handler, an optical system for exciting the coumarin dye while simultaneously recording the coumarin and oxonol emissions, a waveform generator, a current- or voltage-controlled amplifier, and parallel electrode pairs that are inserted into assay plate wells. Under integrated computer control, this instrument passes user-programmed electrical stimulus protocols to cells within the wells of the microtiter plate.
16-20 hours prior to running the assay on E-VIPR, HEK cells expressing a truncated form of human NaV 1.8 with full channel activity were seeded into microtiter 384-well plates, pre-coated with matrigel, at a density of 25,000 cells per well. 2.5-5% KIR2.1 BacMam virus was added to the final cell suspension before seeding into cell plates. HEK cells were grown in Dulbecco's Modified Eagle's Medium (DMEM) supplemented with 10% FBS (Fetal Bovine Serum, qualified; Sigma #F4135), 1% NEAA (Non-Essential Amino Acids, Gibco #11140), 1% HEPES (Gibco #15630), 1% Pen-Strep (Penicillin-Streptomycin; Gibco #15140) and 5 μg/ml Blasticidin (Gibco #R210-01). Cells were expanded in 5-layer CellSTACK culture chambers or cell culture flasks with vented caps, with 90-95% humidity and 5% CO2.
Reagents and Stock Solutions:
100 mg/mL Pluronic F-127 (Sigma #P2443), in dry DMSO
Compound Plates: Corning 384-well Polypropylene Round Bottom #3656
Cell Plates: 384-well tissue culture treated plates (Greiner #781091-2B)
2.5-5% KIR 2.1 Bacmam virus (produced in-house), prepared as described in Section 3.3 of J. A. Fornwald et al., Gene Expression in Mammalian Cells Using BacMam, a Modified Baculovirus System, 1350 Methods in Molecular Biology 95-116 (2016), the entire contents of which are incorporated by reference. The concentration used can be dependent on viral titer of each batch.
5 mM DiSBAC6(3), a voltage sensitive oxonol acceptor (CAS number 169211-44-3; 5-[3-(1,3-dihexylhexahydro-4,6-dioxo-2-thioxo-5-pyrimidinyl)-2-propen-1-ylidene]-1,3-dihexyldihydro-2-thioxo-4,6(1H,5H)-pyrimidinedione), in dry DMSO. The preparation of DiSBAC6(3) is analogous to that of DiSBAC4(3) as described in Voltage Sensing by Fluorescence Resonance Energy Transfer in Single Cells, Gonzalez, J. E. and Tsien, R. Y. (1995) Biophys. J. 69, 1272-1280.
5 mM CC2-DMPE, a commercially available membrane-bound coumarin phospholipid FRET donor (ThermoFisher Scientific catalog number K1017, CAS number 393782-57-5; tetradecanoic acid, 1,1′-[(1R)-1-[8-(6-chloro-7-hydroxy-2-oxo-2H-1-benzopyran-3-yl)-3-hydroxy-3-oxido-8-oxo-2,4-dioxa-7-aza-3-phosphaoct-1-yl]-1,2-ethanediyl]ester) was prepared in dry DMSO. See also, Improved indicators of cell membrane potential that use fluorescence resonance energy transfer, Gonzalez, J. E. and Tsien, R. Y. (1997) Chem. Biol. 4, 269-277.
Voltage Assay Background Suppression Compound (VABSC-1) is prepared in H2O (89-363 mM, range used to maintain solubility)
Human Serum (HS, Millipore #S1P1-01KL, or Sigma SLBR5469V and SLBR5470V as a 50%/50% mixture, for 25% assay final concentration)
Sodium Chloride 160 mM (9.35 g/L), Potassium Chloride, 4.5 mM (0.335 g/L), Glucose 10 mM (1.8 g/L), Magnesium Chloride (Anhydrous) 1 mM (0.095 g/L), Calcium Chloride 2 mM (0.222 g/L), HEPES 10 mM (2.38 g/L) in water. […]
As a reminder, the IC50 is the concentration that inhibits the measured activity by half. Take `Cc1[nH]c(-c2cc(C(F)(F)F)ncc2C2CCC(C(F)(F)F)CC2)cc(=O)c1C` (centres unmarked) [Compound 142, 2,3-dimethyl-6-[2-(trifluoromethyl)-5-[4-(trifluoromethyl)cyclohexyl]-4-pyridyl]-1H-pyridin-4-one]: the IC50 lay in the range of 500 to 2000 nM.

Regarding `CCOC(=O)c1c(-c2cc3ccccc3nc2N2CCCC(F)(F)C2)[nH]c(C)c(OC)c1=O` [Compound 226, ethyl 2-[2-(3,3-difluoro-1-piperidyl)-3-quinolyl]-5-methoxy-6-methyl-4-oxo-1H-pyridine-3-carboxylate], the concentration for half-maximal inhibition (IC50) lay within 2000 to 5000 nM.

For `Cc1cc(=O)[nH]c(-c2nc(C(F)(F)F)ccc2N2CCCC(F)(F)CC2)n1` [Compound 252, 2-[3-(4,4-difluoroazepan-1-yl)-6-(trifluoromethyl)-2-pyridyl]-4-methyl-1H-pyrimidin-6-one], the IC50 was at least 5000 nM.

With `CCOC(=O)c1c(-c2cc3ccccc3nc2N2CCC(F)(F)C2)[nH]c(C)c(OC)c1=O` [Compound 242, ethyl 2-[2-(3,3-difluoropyrrolidin-1-yl)-3-quinolyl]-5-methoxy-6-methyl-4-oxo-1H-pyridine-3-carboxylate], the IC50 was 2000 to 5000 nM.

Take `CCOC(=O)c1c(-c2cc(C(F)(F)F)ncc2N2CCCC(F)(F)CC2)[nH]c(C)c(C)c1=O` [Compound 34, ethyl 2-[5-(4,4-difluoroazepan-1-yl)-2-(trifluoromethyl)-4-pyridyl]-5,6-dimethyl-4-oxo-1H-pyridine-3-carboxylate]: the IC50 lay in the range of 2000 to 5000 nM.

Turning to `CCOC(=O)c1c(-c2cc3ccccc3nc2N2CCCOCC2)[nH]c(C)c(OC)c1=O` [Compound 227, ethyl 5-methoxy-6-methyl-2-[2-(1,4-oxazepan-4-yl)-3-quinolyl]-4-oxo-1H-pyridine-3-carboxylate], the IC50 was 2000 to 5000 nM.

In the case of `Cc1cc(C(C)(C)C)cc(Oc2ccc(F)cc2O)c1-c1cc(=O)cc[nH]1` [Compound 160, 2-[4-tert-butyl-2-(4-fluoro-2-hydroxy-phenoxy)-6-methyl-phenyl]-1H-pyridin-4-one], the IC50 was at least 5000 nM.

For `CCOC(=O)c1c(-c2cc3ccccc3nc2N2CCCCC2)[nH]c(C)c(OC)c1=O` [Compound 250, ethyl 5-methoxy-6-methyl-4-oxo-2-[2-(1-piperidyl)-3-quinolyl]-1H-pyridine-3-carboxylate], the IC50 fell in the range of 500 to 2000 nM.

`CCOC(=O)c1c(-c2cc3ccccc3nc2N2CCC(OC)CC2)[nH]c(C)c(OC)c1=O` [Compound 229, ethyl 5-methoxy-2-[2-(4-methoxy-1-piperidyl)-3-quinolyl]-6-methyl-4-oxo-1H-pyridine-3-carboxylate]: the half-inhibitory concentration (IC50) lay in the range of 2000 to 5000 nM.

For the compound `Cc1cnc(N2CCCC(F)(F)CC2)c(-c2cc(=O)cc(C)[nH]2)c1` [Compound 320, 2-[2-(4,4-difluoroazepan-1-yl)-5-methyl-3-pyridyl]-6-methyl-1H-pyridin-4-one], the IC50 fell in the range of 2000 to 5000 nM.

In the case of `CCOC(=O)c1c(-c2cc3ccccc3nc2N2CC[C@H](OC)C2)[nH]c(C)c(OC)c1=O` [Compound 244, ethyl 5-methoxy-2-[2-[(3S)-3-methoxypyrrolidin-1-yl]-3-quinolyl]-6-methyl-4-oxo-1H-pyridine-3-carboxylate], the IC50 was in the range of 2000 to 5000 nM.

As for `CCOC(=O)c1c(-c2cc3ccccc3nc2N2CCC[C@@H](OC)C2)[nH]c(C)c(OC)c1=O` [Compound 224, ethyl 5-methoxy-2-[2-[(3R)-3-methoxy-1-piperidyl]-3-quinolyl]-6-methyl-4-oxo-1H-pyridine-3-carboxylate], the IC50 was 2000 to 5000 nM.

As to `Cc1cc(=O)cc(-c2cc(C(F)(F)F)ncc2C2CCC(C(F)(F)F)CC2)[nH]1` (centres unmarked) [Compound 321, 2-methyl-6-[2-(trifluoromethyl)-5-[4-(trifluoromethyl)cyclohexyl]-4-pyridyl]-1H-pyridin-4-one], the IC50 is at least 5000 nM.

Consider `Cc1cc(=O)cc(-c2cnc(C(F)(F)F)nc2C2CCC(F)(F)CC2)[nH]1` [Compound 109, 2-[4-(4,4-difluorocyclohexyl)-2-(trifluoromethyl)pyrimidin-5-yl]-6-methyl-1H-pyridin-4-one], for which the IC50 was in the range of 2000 to 5000 nM.

For `Cc1cc(=O)cc(-c2ccccc2C2CC2)[nH]1` [Compound 148, 2-(2-cyclopropylphenyl)-6-methyl-1H-pyridin-4-one], the IC50 is at least 5000 nM.

With `Cc1cc(-c2[nH]c(C)c(C)c(=O)c2C(=O)O)c(N2CCCC(F)(F)CC2)nc1C(F)(F)F` [Compound 284, 2-[2-(4,4-difluoroazepan-1-yl)-5-methyl-6-(trifluoromethyl)-3-pyridyl]-5,6-dimethyl-4-oxo-1H-pyridine-3-carboxylic acid], the IC50 lay in the range of 500 to 2000 nM.

Consider `Cc1cc(=O)cc(-c2ccc(C(F)(F)F)cc2C2(O)CCC(F)(F)CC2)[nH]1` [Compound 323, 2-[2-(4,4-difluoro-1-hydroxy-cyclohexyl)-4-(trifluoromethyl)phenyl]-6-methyl-1H-pyridin-4-one], for which the IC50 is at least 5000 nM.
